Laboratory results taken from patent US4665075A, “Derivatives of hydroxy- or amino-substituted (piperidinylalkyl)quinazolines” (Janssen Pharmaceutica N.V., priority 1985, dated 1987).

Experiments:
[1] = system: serotonin-induced contraction of the caudal artery of the rat; experiment: Test 1: Antagonistic activity on the effect of serotonin on the caudal artery of the rat; settings: rat caudal artery strips; serotonin 40 ng/ml; measured 5 minutes after adding the drug
Method: Test 1: Antagonistic activity on the effect of serotonin on the caudal artery of the rat
Caudal arteries from fasted male rats (210-235 g) were used in the test. Two helical strips having a length of 5-6 cm and a width of 2 mm were obtained from each artery and mounted vertically in a 100 ml organ bath containing an oxygenated Krebs-Henseleit solution. Submaximal contractions of the arterial strips were produced by adding single doses of serotonin (40 ng/ml) to the organ bath for 2 minutes with each time an interval of 10 minutes. The amplitude of the contraction is measured before and 5 minutes after adding the drug. After washing out, the agonist was added again three times in order to see whether the contraction is restored and normalized.
In this connection the ED50 -values are the minimal concentrations of the concerned drugs which reduce the amplitude of the contraction to at least 50% of its normal value.

[2] = system: gastric lesions induced by compound 48/80; experiment: Test 2: Effects in gastric lesion tests; lesions induced by compound 48/80; type: in vivo, rat (male, Wistar inbred strain); settings: oral, 2 hours before compound 48/80 1 mg/kg i.v.; stomachs inspected 4 hours later
Method: Test 2: Effects in gastric lesion tests
The shock, followed by dead, can be avoided if the rats are pretreated with a classical H1 antagonist.
Male rats of a Wistar inbred strain, weighing 220-250 g, were starved overnight, water being available ad libitum. The test compounds were administered orally as a solution or as a suspension in aqueous medium. A control rat and a "blank" rat receive the test compound. One hour later 5-[4-(diphenylmethyl)-1-piperazinyl-methyl]-1-methyl-1H-benzimidazole-2-methanol is adhministered subcutaneously to all rats at the dose of 2.5 mg/kg. […] Five minutes after the injection the intensity of purple-blue coloration (cyanosis) of the extremities was scored as 0 (absent), + (moderate) or ++ (intense). Four hours after the intravenous injection of compound 48/80 the rats were decapitated and the stomachs were removed. Subsequently the stomachs were inspected for distension and contents (blood, fluid, food) and thoroughly rinsed. The macroscopic lesions were scored from 0 to +++, 0 corrsponding to complete absence of visible lesions and the highest score corresponding to reddish rough patches covering more than half the glandular area.
The compounds listed in table 1 are not given for the purpose of limiting the invention thereto but only to exemplify the useful pharmacological activities of all the compounds within the scope of formula (I).

[3] = system: cyanosis, gastric lesions and shock induced by compound 48/80; settings: rats injected with compound 48/80; cited from earlier work

Structure (SMILES) | Caudal artery ED50 (minimal concentration which reduces the amplitude of the serotonin-induced contraction to at least 50% of its normal value) [1] | Gastric lesion ED50 (dose at which distension of the stomach and lesions in the glandular area are completely absent in 50% of the test rats) [2] | prevention of the abnormal gastric distension [3] | prevention of the cyanosis of ears and extremities [3] | prevention of the lesions in the glandular area of the stomach [3]
Nc1ccc2c(=O)n(CCCCN3CCC(C(=O)c4ccc(F)cc4)CC3)c(=O)[nH]c2c1 [Compound 8, 7-amino-3-[4-[4-(4-fluorobenzoyl)-1-piperidinyl]butyl]-2,4(1H,3H)-quinazolinedione] | 0.32 ng/mL | 0.04 mg/kg | – | – | –
Nc1ccc2c(=O)n(CCN3CCC(C(=O)c4ccc(F)cc4)CC3)c(=S)[nH]c2c1 [Compound 9, 7-amino-3-[2-[4-(4-fluorobenzoyl)-1-piperidinyl]ethyl]-2,3-dihydro-2-thioxo-4(1H)-quinazolinone] | 0.18 ng/mL | 0.005 mg/kg | – | – | –
Nc1ccc2c(=O)n(CCCCN3CCC(C(=O)c4ccc(F)cc4)CC3)c(=S)[nH]c2c1 [Compound 11, 7-amino-3-[4-[4-(4-fluorobenzoyl)-1-piperidinyl]butyl]-2,3-dihydro-2-thioxo-4(1H)-quinazolinone] | < 0.63 ng/mL | 0.63 mg/kg | – | – | –
Nc1ccc2c(=O)n(CCN3CCC(C(=O)c4ccc(F)cc4)CC3)c(=O)[nH]c2c1 [Compound 12, 7-amino-3-[2-[4-(4-fluorobenzoyl)-1-piperidinyl]ethyl]-2,4(1H,3H)-quinazolinedione] | < 0.63 ng/mL | 0.04 mg/kg | – | – | –
CC(=O)Nc1ccc2c(=O)n(CCCCN3CCC(C(=O)c4ccc(F)cc4)CC3)c(=O)[nH]c2c1 [Compound 18, N-[3-[4-[4-(4-fluorobenzoyl)-1-piperidinyl]butyl]-1,2,3,4-tetrahydro-2,4-dioxo-7-quinazolinyl]-acetamide] | 0.32 ng/mL | 0.08 mg/kg | – | – | –
CC(=O)Nc1ccc2c(=O)n(CCN3CCC(C(=O)c4ccc(F)cc4)CC3)c(=S)[nH]c2c1 [Compound 19, N-[3-[2-[4-(4-fluorobenzoyl)-1-piperidinyl]ethyl]-1,2,3,4-tetrahydro-4-oxo-2-thioxo-7-quinazolinyl]acetamide] | 0.32 ng/mL | 0.01 mg/kg | – | – | –
CC(=O)Nc1ccc2c(=O)n(CCN3CCC(C(=O)c4ccc(F)cc4)CC3)c(=O)[nH]c2c1 [Compound 22] | 0.37 ng/mL | 0.04 mg/kg | – | – | –
CN(C)CCCSc1ccccc1NC(=O)/C=C/c1ccccc1 [cinanserin] | – | – | prevent completely | prevent completely | prevent completely
CN1CCC(=C2c3ccccc3C=Cc3ccccc32)CC1 [cyproheptadine] | – | – | prevent completely | prevent completely | prevent completely
CN1C[C@H](CNC(=O)OCc2ccccc2)C[C@@H]2c3cccc4c3c(cn4C)C[C@H]21 [metergoline] | – | – | prevent completely | prevent completely | prevent completely
CC[C@@H](CO)NC(=O)[C@@H]1C=C2c3cccc4c3c(cn4C)C[C@H]2N(C)C1 [methysergide] | – | – | prevent completely | prevent completely | prevent completely
CN1CCN2c3ccccc3Cc3ccccc3C2C1 (centres unmarked) [mianserin] | – | – | prevent completely | prevent completely | prevent completely
NC(=O)C1(N2CCCCC2)CCN(CCCC(=O)c2ccc(F)cc2)CC1 [pipamperone] | – | – | prevent completely | prevent completely | prevent completely
CN1CCC(=C2c3ccccc3CCc3sccc32)CC1 [pizotifen] | – | – | prevent completely | prevent completely | prevent completely
O=C(CCCN1CCC2(CC1)C(=O)NCN2c1ccccc1)c1ccc(F)cc1 [spiperone] | – | – | prevent completely | prevent completely | prevent completely
